Laboratory results taken from ChEMBL document CHEMBL4665863 (Bioorg Med Chem, 2020).
≈ marks a conversion by molar mass, not a printed value.

What was measured:
Assay type in all cases: functional
Bacillus pumilus = test: Antibacterial activity against Bacillus pumilus CMCC63202 incubated for 24 hrs by CLSI-based broth microdilution method
Staphylococcus aureus [1] = test: Antibacterial activity against Staphylococcus aureus ATCC25923 incubated for 24 hrs by CLSI-based broth microdilution method
Escherichia coli = test: Antibacterial activity against Escherichia coli ATCC25922 incubated for 24 hrs by CLSI-based broth microdilution method; conditions: ATCC 25922
Staphylococcus aureus [2] = test: Antibacterial activity against methicillin-resistant Staphylococcus aureus ATCC43300 incubated for 24 hrs by CLSI-based broth microdilution method
Staphylococcus aureus [3] = test: Antibacterial activity against penicillin-resistant Staphylococcus aureus incubated for 24 hrs by CLSI-based broth microdilution method
Bacillus subtilis = test: Antibacterial activity against Bacillus subtilis ATCC9372 incubated for 24 hrs by CLSI-based broth microdilution method
Pseudomonas aeruginosa = test: Antibacterial activity against Pseudomonas aeruginosa ATCC27853 incubated for 24 hrs by CLSI-based broth microdilution method

SMILES	MIC (Bacillus pumilus)	MIC (Staphylococcus aureus [1])	MIC (Escherichia coli)	MIC (Staphylococcus aureus [2])	MIC (Staphylococcus aureus [3])	MIC (Bacillus subtilis)	MIC (Pseudomonas aeruginosa)
NC(=O)c1c(F)ccc(OCC2=NOC(c3ccc(Cl)c(Cl)c3)C2)c1F (configuration not stated)	> 64 µg/mL	> 64 µg/mL	> 64 µg/mL	> 64 µg/mL	> 64 µg/mL	16 µg/mL (≈ 39.9 µM)	> 64 µg/mL
Cc1ccc(C2CC(COc3ccc(F)c(C(N)=O)c3F)=NO2)cc1 (configuration not stated)	64 µg/mL (≈ 185 µM)	> 64 µg/mL	> 64 µg/mL	> 64 µg/mL	> 64 µg/mL	16 µg/mL (≈ 46.2 µM)	> 64 µg/mL
COc1cccc(C2=NOC(COc3ccc(F)c(C(N)=O)c3F)C2)c1 (configuration not stated)	32 µg/mL (≈ 88.3 µM)	> 64 µg/mL	> 64 µg/mL	> 64 µg/mL	> 64 µg/mL	8 µg/mL (≈ 22.1 µM)	> 64 µg/mL
COc1ccc(C2=NOC(COc3ccc(F)c(C(N)=O)c3F)C2)cc1 (configuration not stated)	32 µg/mL (≈ 88.3 µM)	> 64 µg/mL	> 64 µg/mL	> 64 µg/mL	> 64 µg/mL	8 µg/mL (≈ 22.1 µM)	> 64 µg/mL
CC(C)c1ccc(C2CC(COc3ccc(F)c(C(N)=O)c3F)=NO2)cc1 (configuration not stated)	8 µg/mL (≈ 21.4 µM)	64 µg/mL (≈ 171 µM)	> 64 µg/mL	64 µg/mL (≈ 171 µM)	> 64 µg/mL	4 µg/mL (≈ 10.7 µM)	> 64 µg/mL
NC(=O)c1c(F)ccc(OCC2CC(c3cccc(Cl)c3)=NO2)c1F (configuration not stated)	8 µg/mL (≈ 21.8 µM)	16 µg/mL (≈ 43.6 µM)	> 64 µg/mL	32 µg/mL (≈ 87.3 µM)	32 µg/mL (≈ 87.3 µM)	2 µg/mL (≈ 5.45 µM)	> 64 µg/mL
CC(C)(C)c1ccc(C2CC(COc3ccc(F)c(C(N)=O)c3F)=NO2)cc1 (configuration not stated)	4 µg/mL (≈ 10.3 µM)	64 µg/mL (≈ 165 µM)	> 64 µg/mL	32 µg/mL (≈ 82.4 µM)	32 µg/mL (≈ 82.4 µM)	2 µg/mL (≈ 5.15 µM)	> 64 µg/mL
NC(=O)c1c(F)ccc(OCC2CC(c3ccc(Cl)cc3)=NO2)c1F (configuration not stated)	8 µg/mL (≈ 21.8 µM)	32 µg/mL (≈ 87.3 µM)	> 64 µg/mL	32 µg/mL (≈ 87.3 µM)	32 µg/mL (≈ 87.3 µM)	8 µg/mL (≈ 21.8 µM)	> 64 µg/mL
NC(=O)c1c(F)ccc(OCC2CC(c3ccc(C4CCCCC4)cc3)=NO2)c1F (configuration not stated)	> 64 µg/mL	> 64 µg/mL	> 64 µg/mL	> 64 µg/mL	> 64 µg/mL	> 64 µg/mL	> 64 µg/mL
CCCOc1cccc(C2=NOC(COc3ccc(F)c(C(N)=O)c3F)C2)c1 (configuration not stated)	2 µg/mL (≈ 5.12 µM)	16 µg/mL (≈ 41 µM)	> 64 µg/mL	16 µg/mL (≈ 41 µM)	32 µg/mL (≈ 82 µM)	4 µg/mL (≈ 10.2 µM)	> 64 µg/mL
NC(=O)c1c(F)ccc(OCC2=NOC(c3ccc(F)cc3)C2)c1F (configuration not stated)	64 µg/mL (≈ 183 µM)	> 64 µg/mL	> 64 µg/mL	> 64 µg/mL	> 64 µg/mL	16 µg/mL (≈ 45.7 µM)	> 64 µg/mL
CCCCc1ccc(C2CC(COc3ccc(F)c(C(N)=O)c3F)=NO2)cc1 (configuration not stated)	0.5 µg/mL (≈ 1.29 µM)	8 µg/mL (≈ 20.6 µM)	> 64 µg/mL	4 µg/mL (≈ 10.3 µM)	4 µg/mL (≈ 10.3 µM)	≤ 0.125 µg/mL	> 64 µg/mL
CCOc1cccc(C2CC(COc3ccc(F)c(C(N)=O)c3F)=NO2)c1 (configuration not stated)	> 64 µg/mL	> 64 µg/mL	> 64 µg/mL	> 64 µg/mL	> 64 µg/mL	64 µg/mL (≈ 170 µM)	> 64 µg/mL
CCOc1ccc(C2=NOC(COc3ccc(F)c(C(N)=O)c3F)C2)cc1 (configuration not stated)	16 µg/mL (≈ 42.5 µM)	64 µg/mL (≈ 170 µM)	> 64 µg/mL	64 µg/mL (≈ 170 µM)	> 64 µg/mL	4 µg/mL (≈ 10.6 µM)	> 64 µg/mL
CCCCCc1ccc(C2=NOC(COc3ccc(F)c(C(N)=O)c3F)C2)cc1 (configuration not stated)	≤ 0.125 µg/mL	> 64 µg/mL	> 64 µg/mL	> 64 µg/mL	> 64 µg/mL	0.5 µg/mL (≈ 1.24 µM)	> 64 µg/mL
CCOc1ccc(C2CC(COc3ccc(F)c(C(N)=O)c3F)=NO2)cc1 (configuration not stated)	64 µg/mL (≈ 170 µM)	> 64 µg/mL	> 64 µg/mL	64 µg/mL (≈ 170 µM)	> 64 µg/mL	16 µg/mL (≈ 42.5 µM)	> 64 µg/mL
NC(=O)c1c(F)ccc(OCC2CC(c3ccc(Cl)cc3Cl)=NO2)c1F (configuration not stated)	2 µg/mL (≈ 4.99 µM)	16 µg/mL (≈ 39.9 µM)	> 64 µg/mL	32 µg/mL (≈ 79.8 µM)	32 µg/mL (≈ 79.8 µM)	4 µg/mL (≈ 9.97 µM)	> 64 µg/mL
NC(=O)c1c(F)ccc(OCC2CC(c3ccc(Cl)c(Cl)c3)=NO2)c1F (configuration not stated)	> 64 µg/mL	> 64 µg/mL	> 64 µg/mL	> 64 µg/mL	> 64 µg/mL	2 µg/mL (≈ 4.99 µM)	> 64 µg/mL
NC(=O)c1c(F)ccc(OCC2CC(c3ccc(Br)cc3)=NO2)c1F (configuration not stated)	4 µg/mL (≈ 9.73 µM)	32 µg/mL (≈ 77.8 µM)	> 64 µg/mL	32 µg/mL (≈ 77.8 µM)	32 µg/mL (≈ 77.8 µM)	2 µg/mL (≈ 4.86 µM)	> 64 µg/mL
NC(=O)c1c(F)ccc(OCC2CC(c3ccco3)=NO2)c1F (configuration not stated)	> 64 µg/mL	> 64 µg/mL	> 64 µg/mL	> 64 µg/mL	> 64 µg/mL	64 µg/mL (≈ 199 µM)	> 64 µg/mL
NC(=O)c1c(F)ccc(OCC2=NOC(c3ccccc3Cl)C2)c1F (configuration not stated)	32 µg/mL (≈ 87.3 µM)	> 64 µg/mL	> 64 µg/mL	> 64 µg/mL	> 64 µg/mL	16 µg/mL (≈ 43.6 µM)	> 64 µg/mL

SMILES	MIC (Bacillus pumilus)	MIC (Staphylococcus aureus [1])	MIC (Escherichia coli)	MIC (Staphylococcus aureus [2])	MIC (Staphylococcus aureus [3])	MIC (Bacillus subtilis)	MIC (Pseudomonas aeruginosa)
CC(C)c1ccc(C2=NOC(COc3ccc(F)c(C(N)=O)c3F)C2)cc1 (configuration not stated)	≤ 0.125 µg/mL	4 µg/mL (≈ 10.7 µM)	> 64 µg/mL	4 µg/mL (≈ 10.7 µM)	16 µg/mL (≈ 42.7 µM)	≤ 0.125 µg/mL	> 64 µg/mL
CCOc1cccc(C2=NOC(COc3ccc(F)c(C(N)=O)c3F)C2)c1 (configuration not stated)	8 µg/mL (≈ 21.3 µM)	32 µg/mL (≈ 85 µM)	> 64 µg/mL	32 µg/mL (≈ 85 µM)	32 µg/mL (≈ 85 µM)	4 µg/mL (≈ 10.6 µM)	> 64 µg/mL
NC(=O)c1c(F)ccc(OCC2=NOC(c3ccc(Br)cc3)C2)c1F (configuration not stated)	32 µg/mL (≈ 77.8 µM)	> 64 µg/mL	> 64 µg/mL	32 µg/mL (≈ 77.8 µM)	> 64 µg/mL	8 µg/mL (≈ 19.5 µM)	> 64 µg/mL
NC(=O)c1c(F)ccc(OCC2=NOC(c3cccc(Cl)c3)C2)c1F (configuration not stated)	> 64 µg/mL	> 64 µg/mL	> 64 µg/mL	> 64 µg/mL	> 64 µg/mL	64 µg/mL (≈ 175 µM)	> 64 µg/mL
NC(=O)c1c(F)ccc(OCC2CC(c3ccccc3Cl)=NO2)c1F (configuration not stated)	64 µg/mL (≈ 175 µM)	> 64 µg/mL	> 64 µg/mL	> 64 µg/mL	> 64 µg/mL	16 µg/mL (≈ 43.6 µM)	> 64 µg/mL
CCCOc1ccc(C2CC(COc3ccc(F)c(C(N)=O)c3F)=NO2)cc1 (configuration not stated)	32 µg/mL (≈ 82 µM)	> 64 µg/mL	> 64 µg/mL	64 µg/mL (≈ 164 µM)	> 64 µg/mL	8 µg/mL (≈ 20.5 µM)	> 64 µg/mL
CN(C)c1ccc(C2=NOC(COc3ccc(F)c(C(N)=O)c3F)C2)cc1 (configuration not stated)	64 µg/mL (≈ 170 µM)	> 64 µg/mL	> 64 µg/mL	> 64 µg/mL	> 64 µg/mL	16 µg/mL (≈ 42.6 µM)	> 64 µg/mL
CCOc1ccccc1C1CC(COc2ccc(F)c(C(N)=O)c2F)=NO1 (configuration not stated)	> 64 µg/mL	> 64 µg/mL	> 64 µg/mL	> 64 µg/mL	> 64 µg/mL	> 64 µg/mL	> 64 µg/mL
NC(=O)c1c(F)ccc(OCC2=NOC(c3ccc(Cl)cc3)C2)c1F (configuration not stated)	16 µg/mL (≈ 43.6 µM)	64 µg/mL (≈ 175 µM)	> 64 µg/mL	32 µg/mL (≈ 87.3 µM)	64 µg/mL (≈ 175 µM)	4 µg/mL (≈ 10.9 µM)	> 64 µg/mL
CCCOc1ccc(C2=NOC(COc3ccc(F)c(C(N)=O)c3F)C2)cc1 (configuration not stated)	4 µg/mL (≈ 10.2 µM)	> 64 µg/mL	> 64 µg/mL	> 64 µg/mL	> 64 µg/mL	4 µg/mL (≈ 10.2 µM)	> 64 µg/mL
COc1ccccc1C1=NOC(COc2ccc(F)c(C(N)=O)c2F)C1 (configuration not stated)	> 64 µg/mL	> 64 µg/mL	> 64 µg/mL	> 64 µg/mL	> 64 µg/mL	> 64 µg/mL	> 64 µg/mL
N#Cc1ccc(C2=NOC(COc3ccc(F)c(C(N)=O)c3F)C2)cc1 (configuration not stated)	> 64 µg/mL	> 64 µg/mL	> 64 µg/mL	> 64 µg/mL	> 64 µg/mL	32 µg/mL (≈ 89.6 µM)	> 64 µg/mL
Cc1cccc(C2CC(COc3ccc(F)c(C(N)=O)c3F)=NO2)c1 (configuration not stated)	> 64 µg/mL	> 64 µg/mL	> 64 µg/mL	> 64 µg/mL	> 64 µg/mL	64 µg/mL (≈ 185 µM)	> 64 µg/mL
CCc1ccc(C2=NOC(COc3ccc(F)c(C(N)=O)c3F)C2)cc1 (configuration not stated)	2 µg/mL (≈ 5.55 µM)	8 µg/mL (≈ 22.2 µM)	> 64 µg/mL	8 µg/mL (≈ 22.2 µM)	16 µg/mL (≈ 44.4 µM)	0.5 µg/mL (≈ 1.39 µM)	> 64 µg/mL
Cc1cccc(C2=NOC(COc3ccc(F)c(C(N)=O)c3F)C2)c1 (configuration not stated)	8 µg/mL (≈ 23.1 µM)	32 µg/mL (≈ 92.4 µM)	> 64 µg/mL	16 µg/mL (≈ 46.2 µM)	64 µg/mL (≈ 185 µM)	16 µg/mL (≈ 46.2 µM)	> 64 µg/mL
NC(=O)c1c(F)ccc(OCC2CC(c3ccccc3)=NO2)c1F (configuration not stated)	64 µg/mL (≈ 193 µM)	> 64 µg/mL	> 64 µg/mL	> 64 µg/mL	> 64 µg/mL	16 µg/mL (≈ 48.1 µM)	> 64 µg/mL
NC(=O)c1c(F)ccc(OCC2CC(c3ccc4c(c3)OCO4)=NO2)c1F (configuration not stated)	16 µg/mL (≈ 42.5 µM)	64 µg/mL (≈ 170 µM)	> 64 µg/mL	64 µg/mL (≈ 170 µM)	64 µg/mL (≈ 170 µM)	16 µg/mL (≈ 42.5 µM)	> 64 µg/mL
CCc1ccc(C2CC(COc3ccc(F)c(C(N)=O)c3F)=NO2)cc1 (configuration not stated)	16 µg/mL (≈ 44.4 µM)	64 µg/mL (≈ 178 µM)	> 64 µg/mL	64 µg/mL (≈ 178 µM)	> 64 µg/mL	4 µg/mL (≈ 11.1 µM)	> 64 µg/mL
Cc1ccc(C2=NOC(COc3ccc(F)c(C(N)=O)c3F)C2)cc1 (configuration not stated)	16 µg/mL (≈ 46.2 µM)	32 µg/mL (≈ 92.4 µM)	> 64 µg/mL	32 µg/mL (≈ 92.4 µM)	> 64 µg/mL	16 µg/mL (≈ 46.2 µM)	> 64 µg/mL
COc1cccc(C2CC(COc3ccc(F)c(C(N)=O)c3F)=NO2)c1 (configuration not stated)	> 64 µg/mL	> 64 µg/mL	> 64 µg/mL	> 64 µg/mL	> 64 µg/mL	> 64 µg/mL	> 64 µg/mL
